This note sets out measurements from patent publication US20050164994A1, “Treatment of genitourinary tract disorders” (Control Deliver Systems, Inc., priority 2001, published 2005).

Several values for one entry are separate records, joined by “and”; a condition that tells them apart may be missing. Identical values can stand only once.

The data set in a line: Canine study: codrug remaining in 5 mg pellets implanted in the prostate. The format is in vivo. Conditions: dog prostate, 5 mg implant. How it is done:
A canine study was performed using a codrug of 5-FU and fluocinolone acetonide (Fa) to evaluate the release rate of the codrug in prostate tissue. The results of that study are detailed in FIGS. 1-3. Two 5 mg pellets of the codrug were implanted in the prostate, and the animals were humanely sacrificed on postoperative days, as indicated. The prostates were removed and levels of the codrug in the pellets determined.

With `CC1(C)O[C@@H]2CC3C4C[C@H](F)C5=CC(=O)C=C[C@]5(C)[C@@]4(F)[C@@H](O)C[C@]3(C)[C@]2(C(=O)COC(=O)CC(=O)n2c(=O)[nH]cc(F)c2=O)O1` (some centres unmarked) [5-FU + FA], the “Codrug Remaining (single pellet)” value was 4.27 mg and 4.24 mg and 4.04 mg and 3.50 mg and 4.14 mg and 4.18 mg and 4.12 mg and 4.23 mg (sacrificed at 28 days); 3.50 mg and 3.33 mg and 3.89 mg and 4.12 mg (sacrificed at 42 days).
